From US11859252B2, “Diagnostic and therapeutic methods for cancer” (Genentech, Inc., priority 2017, dated 2024) come the findings set out here.

Molecules are shown by their SMILES. Entries after “also recorded” stand apart in the source; their conditions may differ.

One data set concerns pMEK, pERK, pRSK, pAKT. Description: Immunoblot of pathway markers after compound treatment. The class given is cell-based. The settings on record: for induction of pMEK by PI3K inhibition: A549 and HCT116 cells, FIGS. 7B-7D. How it is done: Cells lysed in lysis buffer (0.5% NP40, 20 mM Tris, pH 7.5, 137 mM NaCl, 10% glycerol, 1 mM EDTA) plus protease inhibitor mixture-complete mini (Roche Applied Science, 11836170001) and phosphatase inhibitor mix (Thermo, 78426). Lysates were centrifuged at 15,000 rpm for 10 minutes and the protein concentration determined using BCA (Thermo, 23227). Equal amounts of protein were subjected to SDS-PAGE NuPAGE 4-12% Bis-Tris Gel (Novex, WG-1403) and transferred to nitrocellulose membrane (BioRad, 170-4159). After blocking in blocking buffer (Li-Cor, 927-40000), membranes were incubated with the indicated primary antibodies and analyzed either by the addition of secondary antibodies IRDye 680LT Goat anti-Mouse IgG (H+L) (Li-Cor, 926-68050) or IRDye 800CW goat anti-Rabbit IgG (H+L) (Li-Cor, 926-32211). The membranes were visualized on the LiCor Odyssey CLx Scanner.
For orientation: Immunoblotting shows a protein as a band on a membrane.

Data set [1] relates to A549 cells. Description: 12×12 matrix titration, Bliss excess, […]-GLO. The class given is cell-based. Particulars: 3 days. The method, then:
For combination synergy studies, cells were plated in 384-well plates (Corning) and treated with varying concentrations of compound, either alone or in combination for 72 hours. Cell viability was determined using CellTiter-Glo Luminescent Cell Viability Assay (Promega, G7573). Synergistic effects were determined using the Bliss independence analysis methods (Greco et al. Pharmacol. Rev. 47: 331-385, 1995; Chou and Talalay. Adv. Enzyme Regul. 22:27-55, 1984; Chou. Cancer Res. 70: 440-446, 2010; Bliss. Ann. Appl. Biol. 25: 31, 1939).

For data set [2], the system named is NRAS mutant melanoma cell line. Description: Viability of NRAS mutant melanoma versus BRAF-V600E and wild-type lines. The class given is cell-based. Particulars: FIG. 8A. How it is done: Compounds were screened in nine-point dose response using a three-fold dilution. Cells were seeded into 384-well plates 24 hours prior to compound addition. Cells were then incubated with compound for 72 hours or 120 hours before assaying viability (CellTiter-Glo, Promega). Assays were performed in biological triplicate. […] Mean viability is equivalent to the area under the log-dose/viability curve divided by the total number of tested doses.

Data set [3] in a line: Plasma and tumor drug concentrations. The format is in vivo, mice. Particulars: combination with GDC-0973, FIG. 3D.
Data set [4] deals with A549 cells. Description: Clonogenic (colony growth) assay. The format is cell-based. The settings on record: 8 days; crystal violet; FIG. 2F, 5E. The method, then:
Cells were plated in duplicate in 6-well plates at 10,000 cells/well, allowed to attach overnight and treated for 8 days with the indicated compounds. Media with appropriate compounds was replenished every 72 hours. At 8 days cells were rinsed once with PBS, fixed and stained with crystal violet solution (Sigma Aldrich, HT90132) for 20 minutes and washed with water.

Data set [5] has as its system HCT116 colon xenograft tumor. The experiment in a line: HCT116 colon xenograft tumor model.
Description: The formulations were mixed well by vortexing before dosing. Test articles were stored in a refrigerator set to maintain a temperature range of 4° C.-7° C.
Only animals that appeared to be healthy and that were free of obvious abnormalities were used for each study. Tumor volumes were determined using digital calipers (Fred V. Fowler Company, Inc.) using the formula (L×W×W)/2. […] Mice were weighed twice a week using a standard scale.
Data set [6] relates to MAPK pathway signaling (pERK, pRSK, DUSP6, SPRY4). The experiment in a line: Tumor pharmacodynamics in tumor-bearing mice. The format is in vivo. Particulars: combination of LY3009120 and GDC-0973 vs either alone, 4 days of treatment, FIG. 3C. How it is done: GEM model tumor samples were collected and stored in RNALater (Qiagen, Valencia, CA). Total RNA was extracted with RNeasy Plus Mini kit (Qiagen) following manufacturer's instructions. RNA quantity was determined using Nanodrop (Thermo Scientific, Waltham, MA).
Transcriptional readouts were assessed using either a Fluidigm instrument or standard RT-PCR assays according to manufacturer's recommendations. RNA (100 ng) was subjected to cDNA synthesis/pre-amplification reactions using the Applied Biosystems High Capacity cDNA RT Kit and TaqMan PreAmp Master Mix as per the manufacturer's protocol (Life Technologies, Carlsbad, CA). […]
To prepare protein lysates, cells were washed once with ice-cold PBS and lysed in 1× Cell Extraction Buffer (Invitrogen) supplemented with protease inhibitor tablet (Roche) and phosphatase inhibitors (Sigma). Protein concentration was determined using BCA Protein Assay (Pierce). […] Antigen-antibody interaction was detected with HRP-conjugated goat anti-rabbit and goat anti-mouse antibodies (Jackson ImmunoResearch) using enhanced chemiluminescence detection reagents (Pierce) or with IRDye 800 conjugated, affinity purified anti rabbit IgG (LI-COR Biosciences) and Alexa Fluor 680 goat anti mouse IgG (Life Technologies) secondary antibodies using the Odyssey Infrared Imaging System (LI-COR Biosciences).

The test system of data set [7] is A549 KRAS-mutant lung cancer cell line. Description: Tool compound combination screen with AZ-628. The class given is cell-based. Particulars: 1 μM AZ-628 versus DMSO, FIG. 1D-1E. How it is done:
A compound library comprising 480 compounds arrayed in 9-point dose response was screened in the absence or presence of a fixed dose of either AZ-628 or DMSO in A549 cells. A549 cells were seeded into 384 well plates, and compound was added 24 h later. Cell viability was determined 120 h post-compound addition (CellTiter Glo). Curves were fitted, and both IC50 and mean viability metrics were calculated. The IC50 is the dose at which inhibition is 50% relative to untreated wells. The mean viability is the average of the fitted viabilities at each tested dose. Mean viability is equivalent to the area under the log-dose/viability curve divided by the total number of tested doses. All data were fitted using Genedata Screener (GDS) software. The combination metric was the difference in mean viability between the AZ-628 treated arm and the DMSO treated arm for each compound.

In a further data set the test system is BRAF-V600E cell lines. The experiment in a line: 3-day […]-GLO viability assay of RAF inhibitors, BRAF-V600E lines. The format is cell-based. Particulars: single agent; BRAF-V600E mutant cell lines; FIG. 1A. How it is done: (§1) Seeding densities were optimized for each cell line to obtain 70-80% confluence after 4 days. The cells were plated into 384-well plates (Griener, 781091) and then treated with compound the following day in a final DMSO concentration of 0.1%. The relative numbers of viable cells were measured by luminescence using CellTiter-Glo (Promega, G7573). Viability curves were generated using a four-parameter fit in GraphPad Prism 6.

The subject of the next data set is KRAS mutant cell lines. Description: 3-day […]-GLO viability assay of RAF inhibitors, KRAS mutant lines. The format is cell-based. The settings on record: single agent, FIG. 1A. How it is done: as §1
A further data set relates to pMEK. The experiment in a line: Phospho (Ser 217/221)/Total MEK1/2 assay. The class given is cell-based. Particulars: KRAS mutant; ratio of P-MEK and total MEK; FIG. 1B. How it is done: Cells were plated at a density of 20,000 cells per 96-well and treated with compound the following day for two hours in a final concentration of 0.2% DMSO. After two hours, the cells were lysed according to manufacturer's protocol (Meso Scale Discovery, K15129D), and the lysates were added to BSA-blocked plates for overnight capture at 4° C. The following day the assay plates were washed three times with TBST and the detection antibody was added for one hour at RT. The plates were then washed three times with TBST. 1× read buffer was added to the plate and immediately read on the Meso Scale Discovery SECTOR Imager 6000. Curves were generated using Graph Pad Prism 6.

The next data set relates to RAS-GTP. Description: Ras activity assay (RAF1-RBD pull-down). The format is cell-based. The settings on record: A549, 24 hours, RAF1-RBD pull-down, FIG. 7E. The method, then:
Levels of active GTP-loaded Ras were determined by GST-Raf-RBD pull-down assay (Thermo Scientific, 16117). In brief, GST-Raf-RBD fusion proteins were incubated with glutathione beads, and cells were collected in lysis buffer as recommended by the manufacturer. The cell lysates were incubated with the GST-Raf-RBD immobilized beads for 1.5 hours at 4° C. Bound proteins were eluted with SDS sample buffer and analyzed by Western blot.

Consider `CNS(=O)(=O)Nc1nccc(Cc2c(C)c3ccc(Oc4ncccn4)cc3oc2=O)c1F` [CH-6766], for which, in the data set with pMEK, pERK, pRSK, pAKT (A549 cells, 24 hours at 1 μM, FIG. 1F), the “induction of pMEK” value was “do not induce pMEK”. Besides, the “synergy with AZ-628 (Bliss excess)” value in the data set on A549 cells [1] (full-dose Bliss matrix, FIG. 1G) is “less synergistic with AZ-628”.
Consider `CNc1ncc2cc(-c3cc(NC(=O)NCCC(C)(C)C)c(F)cc3C)c(C)nc2n1` [LY3009120], for which the “effect on mean viability, NRAS mutant vs BRAF-V600E” value in data set [2] is given as “approximately equivalent effects on mean viability”. In addition, the “drug exposure in combination” value in data set [3] is “not due to increased drug exposure”. Moreover, the “synergy with cobimetinib in colony formation” value with A549 cells [4] is “marked synergy”. Besides, the “tumor growth, combination with cobimetinib” value in data set [5] (HCT116, LY3009120+GDC-0973, FIG. 3A) is reported as “capable of effectively regressing the tumors”. Also, the “tumor growth, single agent” value in data set [5] (HCT116, LY-3009120 25 mg/kg IP QD, cobimetinib 5 mg/kg PO QD, FIG. 3A) is reported as “modestly inhibited tumor growth”. Moreover, the “tolerability / body weight” value in data set [5] (HCT116 xenograft mice, combination with cobimetinib, FIG. 3B) is recorded as “well tolerated in the mice, resulting in little or minimal changes in body weight post-treatment”. The “suppression of DUSP6 and SPRY4 in tumor” value in data set [6] is “deeper suppression of downstream MAPK target genes, DUSP6 and SPRY4”. Also, in data set [6] (all time points), the “suppression of pERK and pRSK in tumor” value was “better suppression of pERK and pRSK”.
As for `O=C(NOC[C@H](O)CO)c1ccc(F)c(F)c1Nc1ccc(I)cc1F` [PD901], in data set [7], the “hit ranking / mean viability difference with AZ-628” value is recorded as “scored highest among the compounds tested”.
For `O=C(c1c(F)ccc(NS(=O)(=O)N2CC[C@@H](F)C2)c1F)c1c[nH]c2ncc(-c3cnc(C4CC4)nc3)cc12` [PLX-8394], the “activity in cell viability assay” value is “showed activity in BRAF-V600E mutant cell lines” in the data set on BRAF-V600E cell lines and “but not in KRAS mutant cell lines” with KRAS mutant cell lines. For the same compound, in the data set on A549 cells [1] (FIG. 2A), the “synergy with cobimetinib (Bliss excess)” value was “did not synergize with MEK inhibitors in KRAS mutant cell lines”. Moreover, the “paradoxical activation of downstream pMEK” value in the data set on pMEK is “do not induce paradoxical activation”.
For `CC(C)(C)c1nc(-c2cccc(NS(=O)(=O)c3c(F)cccc3F)c2F)c(-c2ccnc(N)n2)s1` [dabrafenib], the “activity in cell viability assay” value in the data set with BRAF-V600E cell lines was “showed activity in BRAF-V600E mutant cell lines”; in the data set on KRAS mutant cell lines it was “but not in KRAS mutant cell lines”. Moreover, in the data set with pMEK, the “paradoxical activation of downstream pMEK” value was “led to paradoxical activation of downstream pMEK in KRAS mutant tumors”.
As for `CS(=O)(=O)N1CCN(Cc2cc3nc(-c4cccc5[nH]ncc45)nc(N4CCOCC4)c3s2)CC1` [pictilisib], the “pERK and pRSK levels” value with pMEK, pERK, pRSK, pAKT (A549, 24 hours, dose-dependent, FIG. 7D) was “increased pERK and pRSK levels”. The pAKT inhibition entry in the data set with pMEK, pERK, pRSK, pAKT (A549, pictilisib alone, 24 hours, FIG. 7G) is “robustly inhibit pAKT”. For the same compound, the “induction of pMEK by PI3K inhibition” value with pMEK, pERK, pRSK, pAKT (24 hours) is given as “doing so at lower concentrations; also recorded: dose-dependent induction of pMEK”. In addition, the RAS-GTP levels entry is recorded as “dose-dependent induction of RAS-GTP levels” with RAS-GTP and “increase levels of RAS-GTP (albeit at higher concentrations) similar to that induced by cobimetinib” in the data set with RAS-GTP (listed as Pictilisib). Moreover, in data set [7], the “hit ranking / mean viability difference with AZ-628” value was “notable hits; also recorded: among the top hits of the screen”.
On to `O=C(NC[C@H](O)CO)c1ccncc1Nc1ccc(I)cc1F` [pimasertib], for which the “hit ranking / mean viability difference with AZ-628” value in data set [7] was “scored highest among the compounds tested”.
`COc1cc(F)c(F)c(Nc2ccc(I)cc2F)c1NS(=O)(=O)C1(C[C@H](O)CO)CC1` [refametinib]: the “hit ranking / mean viability difference with AZ-628” value in data set [7] is “scored highest among the compounds tested”.
For the compound `Cc1nc(-c2cn3c(n2)-c2ccc(-c4cnn(C(C)(C)C(N)=O)c4)cc2OCC3)n(C(C)C)n1` [taselisib], the “induction of pMEK by PI3K inhibition” value in the data set with pMEK, pERK, pRSK, pAKT (24 hours) is “doing so at lower concentrations”. Also, the “hit ranking / mean viability difference with AZ-628” value in [7] is recorded as “notable hits”.
